In ChEMBL document CHEMBL5053541, “Andrographolide derivative as antagonist of vitamin D receptor to induce lipidation of microtubule associate protein 1 light chain 3 (LC3)” (Bioorg Med Chem, 2021):
The source made the active and inactive calls. The rule behind the calls is not given here.

Key:
[1] = molecular target: T1, Vitamin D3 receptor (Homo sapiens) (UniProt P11473); assay: Antagonist activity against calcitriol-activated VDR signalling in human HeLa cells assessed as inhibition of VDR signalling incubated with calcitriol for 1 hr followed by compound addition and measured after 24 hrs by luciferase reporter gene assay; type: cell-based
T1 sequence (whole entry): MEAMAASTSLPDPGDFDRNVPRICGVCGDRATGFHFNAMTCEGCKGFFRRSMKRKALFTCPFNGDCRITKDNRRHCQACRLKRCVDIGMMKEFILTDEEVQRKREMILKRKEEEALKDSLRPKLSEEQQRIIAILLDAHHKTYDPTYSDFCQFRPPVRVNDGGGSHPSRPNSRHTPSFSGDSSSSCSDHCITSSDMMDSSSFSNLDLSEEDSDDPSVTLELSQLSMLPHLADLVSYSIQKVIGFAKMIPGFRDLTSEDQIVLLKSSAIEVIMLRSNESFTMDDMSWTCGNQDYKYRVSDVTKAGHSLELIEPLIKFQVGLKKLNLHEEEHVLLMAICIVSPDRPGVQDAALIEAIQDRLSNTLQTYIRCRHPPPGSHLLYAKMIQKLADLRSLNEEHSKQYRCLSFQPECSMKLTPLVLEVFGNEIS

[2] = molecular target: Nuclear factor NF-kappa-B complex (Homo sapiens) (UniProt Q00653+P19838+Q04206); assay: Inhibition of TNF-alpha induced NF-kappaB signalling in human HeLa cells incubated with TNF-alpha for 1 hr followed by compound addition and measured after 24 hrs by luciferase reporter gene assay; type: cell-based
[3] = system: HeLa; assay: Cytotoxicity against human HeLa cells assessed as reduction in cell viability measured after 24 hrs by methylene blue staining based assay
[4] = molecular target: Signal transducer and activator of transcription 3 (Homo sapiens) (UniProt P40763); assay: Inhibition of IFN-gamma stimulated STAT3 signalling in human HeLa cells incubated for 1 hr withIFN-gamma followed by compound addition and measured after 24 hrs by luciferase reporter gene assay; type: cell-based
[5] = system: SH-SY5Y; assay: Neuroprotective activity against SNCA-induced neurotoxicity in human SH-SY5Y cells transfected with adenovirus expressing […] SNCA assessed as reduction in […] SNCA expression at 10 uM measured after 6 hrs by western blot analysis; type: functional, cell-based
[6] = system: N2a; assay: Inhibition of lipid synthesis related gene expression in MPP+-induced mouse N2a cells assessed as reduction in Scap gene expression measured after 6 hrs by qRT-PCR analysis; type: functional
[7] = system: N2a; assay: Inhibition of lipid synthesis related gene expression in MPP+-induced mouse N2a cells assessed as reduction in Ldr gene expression measured after 6 hrs by qRT-PCR analysis; type: functional
[8] = system: SH-SY5Y; assay: Neuroprotective activity against A53T SNCA-induced cytotoxicity in human SH-SY5Y cells assessed as decrease in A53T SNCA induced LDH release at 10 uM by LDH assay; type: functional, cell-based
[9] = system: N2a; assay: Inhibition of lipid synthesis related gene expression in MPP+-induced mouse N2a cells assessed as reduction in Insig-1 gene expression measured after 6 hrs by qRT-PCR analysis; type: functional
[10] = system: N2a; assay: Effect on SNCA oligomerization in mouse N2a cells transfected with Syn-luc1 and Syn-luc2 plasmids assessed as reduction in SNCA self-oligomerization by measuring luciferase activity at 10 to 20 uM measured after 6 hrs by bioluminescent protein-fragment complementation assay; type: functional, cell-based; settings: dose 10-20 µM
[11] = system: N2a; assay: Inhibition of lipid synthesis related gene expression in MPP+-induced mouse N2a cells assessed as reduction in ACACA gene expression measured after 6 hrs by qRT-PCR analysis; type: functional
[12] = system: N2a; assay: Induction of autophagy in MPP+-induced mouse N2a cells transfected with Atg7 shRNA assessed as increase in LC3-II expression at 10 uM measured after 6 hrs by western blot analysis; type: functional, cell-based
[13] = molecular target: T1, Vitamin D3 receptor (Homo sapiens); assay: Antagonist activity at VDR in human HeLa cells assessed as decrease in mTOR phosphorylation at Ser2448 residue at 10 uM in presence or absence of calcitriol measured after 4 hrs by western blot analysis; type: cell-based
[14] = system: N2a; assay: Induction of autophagy in MPP+-induced mouse N2a cells expressing myc-VDR plasmid assessed as LC3 lipidation at 10 uM measured after 6 hrs by western blot analysis; type: functional, cell-based
[15] = system: N2a; assay: Upregulation of SREBP2 cleavage in MPP+-induced mouse N2a cells assessed as increase in active form of phospho-SREBP2 level measured up to 6 hrs by western blot analysis; type: functional
[16] = system: N2a; assay: Inhibition of lipid synthesis related gene expression in MPP+-induced mouse N2a cells assessed as reduction in Fasn gene expression measured after 6 hrs by qRT-PCR analysis; type: functional
[17] = system: N2a; assay: Induction of autophagy in MPP+-induced mouse N2a cells assessed as increase in LC3-II expression at 10 uM measured after 6 hrs by western blot analysis; type: functional, cell-based
[18] = system: N2a; assay: Upregulation of SREBP2 cleavage in MPP+-induced mouse N2a cells assessed as increase in active cleaved form of SREBP2 level measured up to 6 hrs by western blot analysis; type: functional
[19] = molecular target: T1, Vitamin D3 receptor (Homo sapiens); assay: Antagonist activity at VDR in human HeLa cells assessed as reduction in CYP27B1 mRNA expression at 10 uM measured after 4 hrs by […]; type: cell-based; settings: filed as antagonist
[20] = molecular target: T1, Vitamin D3 receptor (Homo sapiens); assay: Antagonist activity at VDR in human HeLa cells assessed as increase in ratio of LC3-II to LC-I at 10 uM in presence or absence of calcitriol measured after 4 hrs by western blot analysis; type: cell-based; settings: filed as antagonist
[21] = system: N2a; assay: Induction of autophagy in MPP+-induced mouse N2a cells infected with pAde-LC3-EGFP- mCherry assessed as formation of mCherry foci by measuring increased in red fluorescence at 10 uM measured after 4 hrs by Hoechst staining based confocal microscope analysis; type: functional, cell-based
[22] = molecular target: T1, Vitamin D3 receptor (Homo sapiens); assay: Antagonist activity at VDR in human HeLa cells assessed as decrease in mTOR phosphorylation at Ser2448 residue at 100 nM in presence or absence of calcitriol measured after 4 hrs by western blot analysis; type: cell-based
[23] = system: SH-SY5Y; assay: Neuroprotective activity against A53T SNCA-induced cytotoxicity in human SH-SY5Y cells assessed as decrease in A53T SNCA induced LDH release at 100 nM by LDH assay; type: functional, cell-based
[24] = system: N2a; assay: Effect on SNCA oligomerization in mouse N2a cells transfected with Syn-luc1 and Syn-luc2 plasmids assessed as reduction in SNCA self-oligomerization by measuring luciferase activity at 100 nM measured after 6 hrs by bioluminescent protein-fragment complementation assay; type: functional, cell-based
[25] = system: SH-SY5Y; assay: Neuroprotective activity against SNCA-induced neurotoxicity in human SH-SY5Y cells transfected with adenovirus expressing […] SNCA assessed as inhibition of p62 expression at 100 nM measured after 6 hrs by western blot analysis; type: functional, cell-based
[26] = system: SH-SY5Y; assay: Neuroprotective activity against SNCA-induced neurotoxicity in human SH-SY5Y cells transfected with adenovirus expressing […] SNCA assessed as inhibition of mTOR activation at 100 nM measured after 6 hrs by western blot analysis; type: functional, cell-based
[27] = molecular target: T1, Vitamin D3 receptor (Homo sapiens); assay: Antagonist activity at VDR in human HeLa cells assessed as decrease in p62 expression at 100 nM in presence or absence of calcitriol measured after 4 hrs by western blot analysis; type: cell-based; settings: filed as antagonist
[28] = system: SH-SY5Y; assay: Neuroprotective activity against SNCA-induced neurotoxicity in human SH-SY5Y cells transfected with adenovirus expressing […] SNCA assessed as reduction in […] SNCA expression at 100 nM measured after 6 hrs by western blot analysis; type: functional, cell-based
[29] = system: N2a; assay: Induction of autophagy in MPP+-induced mouse N2a cells infected with pAde-LC3-EGFP- mCherry assessed as formation of mCherry foci by measuring increased in red fluorescence at 500 nM measured after 4 hrs by Hoechst staining based confocal microscope analysis; type: functional, cell-based
[30] = molecular target: T1, Vitamin D3 receptor (Homo sapiens); assay: Antagonist activity at VDR in human HeLa cells assessed as increase in ratio of LC3-II to LC-I at 100 nM in presence or absence of calcitriol measured after 4 hrs by western blot analysis; type: cell-based
[31] = molecular target: T1, Vitamin D3 receptor (Homo sapiens); assay: Antagonist activity at VDR in human HeLa cells assessed as decrease in p62 expression at 10 uM in presence or absence of calcitriol measured after 4 hrs by western blot analysis; type: cell-based; settings: filed as antagonist
[32] = molecular target: T1, Vitamin D3 receptor (Homo sapiens); assay: Antagonist activity at VDR in human HeLa cells assessed as reduction in CYP27B1 mRNA expression at 10 uM in presence of calcitriol measured after 4 hrs by […]; type: cell-based

Sequence of Nuclear factor NF-kappa-B complex (Homo sapiens) (P19838 whole entry, looked up): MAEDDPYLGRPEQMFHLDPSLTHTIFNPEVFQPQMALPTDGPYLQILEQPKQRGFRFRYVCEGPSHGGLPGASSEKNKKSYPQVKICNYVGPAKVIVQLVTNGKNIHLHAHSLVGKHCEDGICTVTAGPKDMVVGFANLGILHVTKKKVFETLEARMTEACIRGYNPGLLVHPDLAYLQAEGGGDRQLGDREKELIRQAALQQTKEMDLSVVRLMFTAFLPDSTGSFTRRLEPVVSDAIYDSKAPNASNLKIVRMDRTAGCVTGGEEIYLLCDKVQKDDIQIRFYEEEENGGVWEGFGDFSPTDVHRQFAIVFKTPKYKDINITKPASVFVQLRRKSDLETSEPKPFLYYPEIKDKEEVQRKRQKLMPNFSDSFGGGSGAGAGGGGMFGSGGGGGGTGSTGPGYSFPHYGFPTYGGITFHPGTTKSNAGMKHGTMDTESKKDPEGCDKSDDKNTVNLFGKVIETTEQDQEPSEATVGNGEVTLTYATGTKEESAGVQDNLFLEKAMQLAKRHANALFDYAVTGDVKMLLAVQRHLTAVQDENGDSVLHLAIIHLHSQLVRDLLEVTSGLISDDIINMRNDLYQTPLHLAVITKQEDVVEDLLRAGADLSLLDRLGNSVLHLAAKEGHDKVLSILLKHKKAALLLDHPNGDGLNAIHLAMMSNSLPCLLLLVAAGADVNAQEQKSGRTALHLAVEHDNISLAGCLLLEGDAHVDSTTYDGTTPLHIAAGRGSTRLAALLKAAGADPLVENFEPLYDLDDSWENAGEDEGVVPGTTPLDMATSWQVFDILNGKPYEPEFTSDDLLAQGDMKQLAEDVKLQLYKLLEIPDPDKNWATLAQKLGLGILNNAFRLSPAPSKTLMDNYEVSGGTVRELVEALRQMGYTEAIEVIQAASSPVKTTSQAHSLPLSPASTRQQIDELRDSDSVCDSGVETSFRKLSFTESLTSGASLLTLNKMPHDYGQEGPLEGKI
Sequence of Nuclear factor NF-kappa-B complex (Homo sapiens) (Q00653 whole entry, looked up): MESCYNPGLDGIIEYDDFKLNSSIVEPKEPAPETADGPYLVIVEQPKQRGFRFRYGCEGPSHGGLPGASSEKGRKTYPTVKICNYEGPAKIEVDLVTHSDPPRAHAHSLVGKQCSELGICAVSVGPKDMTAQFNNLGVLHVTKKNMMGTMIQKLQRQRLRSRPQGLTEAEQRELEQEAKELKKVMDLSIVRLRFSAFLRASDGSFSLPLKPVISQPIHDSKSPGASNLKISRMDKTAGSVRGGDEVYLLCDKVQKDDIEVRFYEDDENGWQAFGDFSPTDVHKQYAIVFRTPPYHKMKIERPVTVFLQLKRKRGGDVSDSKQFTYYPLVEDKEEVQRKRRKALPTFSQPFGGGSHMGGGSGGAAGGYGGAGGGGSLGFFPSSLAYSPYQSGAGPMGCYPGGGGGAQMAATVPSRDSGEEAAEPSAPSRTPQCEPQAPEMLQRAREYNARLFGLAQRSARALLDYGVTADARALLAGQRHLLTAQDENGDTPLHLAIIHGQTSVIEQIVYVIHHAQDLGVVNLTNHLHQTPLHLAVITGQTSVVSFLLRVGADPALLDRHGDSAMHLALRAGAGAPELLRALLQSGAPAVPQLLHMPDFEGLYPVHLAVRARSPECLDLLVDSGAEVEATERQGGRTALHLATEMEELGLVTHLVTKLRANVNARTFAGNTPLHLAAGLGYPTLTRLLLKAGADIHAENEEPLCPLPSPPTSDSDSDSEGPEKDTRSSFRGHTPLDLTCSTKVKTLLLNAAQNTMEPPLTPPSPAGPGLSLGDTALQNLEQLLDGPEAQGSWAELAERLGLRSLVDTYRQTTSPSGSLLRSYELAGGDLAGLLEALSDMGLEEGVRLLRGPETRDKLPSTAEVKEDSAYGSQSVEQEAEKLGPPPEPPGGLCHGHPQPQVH
Sequence of Nuclear factor NF-kappa-B complex (Homo sapiens) (Q04206 whole entry, looked up): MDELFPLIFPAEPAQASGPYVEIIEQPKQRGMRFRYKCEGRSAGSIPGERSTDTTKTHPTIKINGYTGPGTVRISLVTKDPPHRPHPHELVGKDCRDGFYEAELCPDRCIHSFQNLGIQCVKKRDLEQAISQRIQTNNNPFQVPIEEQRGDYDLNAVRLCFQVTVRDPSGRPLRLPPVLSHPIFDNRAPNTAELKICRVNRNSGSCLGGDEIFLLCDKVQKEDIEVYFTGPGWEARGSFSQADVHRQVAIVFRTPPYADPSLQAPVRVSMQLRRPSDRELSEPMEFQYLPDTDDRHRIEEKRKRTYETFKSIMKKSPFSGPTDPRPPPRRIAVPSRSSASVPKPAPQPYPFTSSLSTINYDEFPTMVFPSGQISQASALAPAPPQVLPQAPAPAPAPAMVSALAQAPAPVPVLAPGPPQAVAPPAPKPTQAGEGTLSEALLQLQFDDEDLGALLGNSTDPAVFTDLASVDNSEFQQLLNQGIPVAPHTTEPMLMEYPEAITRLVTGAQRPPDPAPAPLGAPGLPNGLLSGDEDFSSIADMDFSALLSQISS
Sequence of Signal transducer and activator of transcription 3 (Homo sapiens) (P40763 whole entry): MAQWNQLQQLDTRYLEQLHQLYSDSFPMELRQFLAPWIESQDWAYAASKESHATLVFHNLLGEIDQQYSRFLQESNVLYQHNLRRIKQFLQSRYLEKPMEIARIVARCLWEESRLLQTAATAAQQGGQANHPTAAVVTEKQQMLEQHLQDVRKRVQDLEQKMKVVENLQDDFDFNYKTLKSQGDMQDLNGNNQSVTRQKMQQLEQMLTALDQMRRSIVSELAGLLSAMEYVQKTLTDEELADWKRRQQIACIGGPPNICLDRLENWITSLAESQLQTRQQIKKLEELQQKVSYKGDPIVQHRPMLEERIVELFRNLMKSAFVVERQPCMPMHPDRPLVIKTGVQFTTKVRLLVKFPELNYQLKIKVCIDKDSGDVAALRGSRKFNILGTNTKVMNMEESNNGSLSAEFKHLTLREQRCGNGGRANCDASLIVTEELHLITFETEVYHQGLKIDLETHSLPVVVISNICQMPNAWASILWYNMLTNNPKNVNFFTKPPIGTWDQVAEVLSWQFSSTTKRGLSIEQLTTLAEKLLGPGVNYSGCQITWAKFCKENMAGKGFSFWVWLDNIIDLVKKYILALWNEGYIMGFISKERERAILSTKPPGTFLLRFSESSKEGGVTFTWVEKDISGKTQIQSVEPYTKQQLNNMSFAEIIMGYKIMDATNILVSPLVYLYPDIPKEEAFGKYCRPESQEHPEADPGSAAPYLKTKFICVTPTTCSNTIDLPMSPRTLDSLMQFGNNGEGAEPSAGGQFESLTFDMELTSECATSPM

| inhibition ([1]; filed as antagonist) | inhibition [4] | inhibition [1] | Structure (SMILES) | Activity [3] | further results |
| --- | --- | --- | --- | --- | --- |
| Active | inactive |  | C=C1CC[C@@H]2[C@]3(C)COC(C)(C)O[C@@H]3CC[C@@]2(C)[C@@H]1C/C=C(/CO)[C@@H](CO)O[Si](CC)(CC)CC | Non-Toxic | inhibition [2]: Active |
| Active | inactive |  | C=C1CC[C@@H]2[C@](C)(COC(C)=O)[C@H](O)CC[C@@]2(C)[C@@H]1C/C=C(/COC(C)=O)[C@@H](COC(C)=O)O[Si](C)(C)C(C)(C)C | Non-Toxic | Activity [5]: Active; Activity [6]: inactive; Activity [7]: inactive; Activity [8]: Active; Activity [9]: inactive; Activity [10]: Active; Activity [11]: inactive; Activity [12]: Active; inhibition [13]: inactive; Activity [14]: inactive; Activity [15]: Active; Activity [16]: inactive; Activity [17]: Active; Activity [18]: Active; inhibition [19]: Active; Activity [20]: Active; Activity [21]: Active |
|  | inactive | inactive | C=C1CC[C@@H]2[C@]3(C)COC(C)(C)O[C@@H]3CC[C@@]2(C)[C@@H]1C/C=C(/CO)[C@@H](CO)O[Si](C)(C)C(C)(C)C | Non-Toxic | inhibition [2]: inactive |
| Active | inactive |  | C=C1CC[C@@H]2[C@](C)(CO)[C@H](O)CC[C@@]2(C)[C@@H]1C/C=C1/C(O)OC[C@H]1O[Si](C)(C)C(C)(C)C (stereo partly drawn) | Non-Toxic |  |
|  |  |  | CCC(=O)N1CCN(c2ccc(-n3c(=O)ccc4cnc5ccc(-c6cnc7ccccc7c6)cc5c43)cc2C(F)(F)F)CC1 |  | Activity [22]: inactive; Activity [23]: Active; Activity [24]: Active; inhibition [25]: Active; inhibition [26]: Active; Activity [27]: Active; Activity [28]: Active; Activity [29]: Active; Activity [17]: Active; Activity [30]: inactive |
|  | inactive | inactive | C=C1CC[C@@H]2[C@]3(C)COC(C)(C)O[C@@H]3CC[C@@]2(C)[C@@H]1C/C=C1/C(=O)OC[C@H]1O[Si](CC)(CC)CC | Non-Toxic | Activity [31]: Active |
| Active | inactive |  | C=C1CC[C@@H]2[C@](C)(CO)[C@H](O)CC[C@@]2(C)[C@@H]1C/C=C(/COC(C)=O)[C@@H](COC(C)=O)O[Si](C)(C)C(C)(C)C | Non-Toxic | Activity [32]: inactive; inhibition ([13]; filed as antagonist): Active; Activity [20]: Active |
|  | inactive | inactive | C=C1CC[C@@H]2[C@](C)(CO)[C@H](O)CC[C@@]2(C)[C@@H]1C/C=C1/C(O)OC[C@H]1O[Si](CC)(CC)CC (stereo partly drawn) | Non-Toxic |  |
|  | inactive | inactive | C=C1CC[C@@H]2[C@]3(C)COC(C)(C)O[C@@H]3CC[C@@]2(C)[C@@H]1C/C=C1/C(O)OC[C@H]1O[Si](C)(C)C(C)(C)C (stereo partly drawn) | Non-Toxic | inhibition [2]: inactive |
| Active | inactive |  | C=C1CC[C@@H]2[C@]3(C)COC(C)(C)O[C@@H]3CC[C@@]2(C)[C@@H]1C/C=C1/C(O)OC[C@H]1O[Si](CC)(CC)CC (stereo partly drawn) | Non-Toxic | inhibition ([13]; filed as antagonist): Active; inhibition [19]: Active; Activity [20]: Active |
|  | inactive | inactive | C=C1CC[C@@H]2[C@]3(C)COC(C)(C)O[C@@H]3CC[C@@]2(C)[C@@H]1C/C=C1/C(=O)OC[C@H]1O[Si](C)(C)C(C)(C)C | Non-Toxic |  |
|  | inactive | inactive | C=C1CC[C@@H]2[C@]3(C)COC(C)(C)O[C@@H]3CC[C@@]2(C)[C@@H]1C/C=C(/COC(C)=O)[C@@H](COC(C)=O)O[Si](C)(C)C(C)(C)C | Non-Toxic |  |
| Active | inactive |  | C=C1CC[C@@H]2[C@]3(C)COC(C)(C)O[C@@H]3CC[C@@]2(C)[C@@H]1C/C=C(/C=O)[C@@H](COC(C)=O)O[Si](C)(C)C(C)(C)C | Non-Toxic | inhibition ([13]; filed as antagonist): Active; inhibition [19]: Active |
|  | inactive | inactive | C=C1CC[C@@H]2[C@](C)(COC(C)=O)[C@H](OC(C)=O)CC[C@@]2(C)[C@@H]1C/C=C(/COC(C)=O)[C@@H](COC(C)=O)O[Si](C)(C)C(C)(C)C | Non-Toxic |  |
